From PMC12250302, “Synthesis, Antimicrobial Activities, and Model of Action of Novel Tetralone Derivatives Containing Aminoguanidinium Moiety” (International Journal of Molecular Sciences, 2025)
Values after ≈ are worked out from the molar mass of the structure shown.

Tests used:
Assay in all cases: MIC and MBC testing, broth microdilution
[1] = test system: A. baumannii ATCC 19606; type: cell-based, Acinetobacter baumannii; conditions: Acinetobacter baumannii; for MIC: ATCC19606, 18 h, read-out: MIC; for MBC: ATCC19606, read-out: MBC
In short: (§1)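 Twofold serial dilutions of compound in DMSO were prepared in MH broth and mixed with log-phase bacteria, which had been diluted to 1 × 10^6 CFU/mL before mixing. Plates were incubated 18 h at 37 °C. MIC was the lowest concentration without visible growth, in triplicate.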

[2] = test system: P. aeruginosa ATCC 27853; type: cell-based, Pseudomonas aeruginosa; conditions: Pseudomonas aeruginosa; for MIC: ATCC27853, 18 h, read-out: MIC; for MBC: ATCC27853, read-out: MBC
In short: as §1

[3] = test system: MRSA-2; type: cell-based, Staphylococcus aureus; conditions: Staphylococcus aureus, MRSA-2; for MIC: 18 h, read-out: MIC; for MBC: read-out: MBC
In short: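 Triplicate broth microdilution: MH broth, serial 2× dilution of compounds dissolved in DMSO, 1 × 10^6 CFU/mL bacteria grown to log phase, 18 h at 37 °C, followed by MBC determination.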

[4] = test system: clinical S. aureus isolate LMY48; type: cell-based, Staphylococcus aureus; conditions: Staphylococcus aureus, LMY48; for MIC: 18 h, read-out: MIC; for MBC: read-out: MBC
In short: (§2)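 Strains (clinical S. aureus LMY45, LMY46, LMY48; MRSA-1) grown to logarithmic phase, diluted to 1 × 10^6 CFU/mL and exposed 18 h at 37 °C to twofold serial compound dilutions in Mueller-Hinton broth, triplicates. Outputs are MIC and bactericidal concentration (MBC).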

[5] = test system: MRSA-1; type: cell-based, Staphylococcus aureus; conditions: Staphylococcus aureus, MRSA-1; for MIC: 18 h, read-out: MIC; for MBC: read-out: MBC
In short: as §2

[6] = test system: clinical S. aureus isolate LMY45; type: cell-based, Staphylococcus aureus; conditions: Staphylococcus aureus, LMY45; for MIC: 18 h, read-out: MIC; for MBC: read-out: MBC
In short: as §2

[7] = test system: clinical S. aureus isolate LMY46; type: cell-based, Staphylococcus aureus; conditions: Staphylococcus aureus, LMY46; for MIC: 18 h, read-out: MIC; for MBC: read-out: MBC
In short: as §2

[8] = test system: clinical S. aureus isolate LMY47; type: cell-based, Staphylococcus aureus; conditions: Staphylococcus aureus, LMY47; for MIC: 18 h, read-out: MIC; for MBC: read-out: MBC
In short: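 Broth microdilution in MH broth; two-fold serial dilutions of DMSO-dissolved compound; inoculum 1 × 10^6 CFU/mL from log-phase culture; 37 °C, 18 h; triplicates; MBC also read.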

[9] = test system: E. faecium ATCC 35667; type: cell-based, Enterococcus faecium; conditions: Enterococcus faecium, ATCC35667, E. faecium ATCC 35667; for MIC: 18 h, read-out: MIC; for MBC: read-out: MBC
In short: as §1

[10] = test system: S. aureus ATCC 29213; type: cell-based, Staphylococcus aureus; conditions: Staphylococcus aureus, ATCC29213, S. aureus ATCC 29213; for MIC: 18 h, read-out: MIC; for MBC: read-out: MBC
In short: as §1

[11] = test system: E. coli ATCC 25922; type: cell-based, Escherichia coli; conditions: Escherichia coli; for MIC: ATCC25922, 18 h, read-out: MIC; for MBC: ATCC25922, read-out: MBC
In short: as §1

[12] = test system: K. pneumoniae ATCC 700603; type: cell-based, Klebsiella pneumoniae; conditions: Klebsiella pneumoniae; for MIC: ATCC700603, 18 h, read-out: MIC; for MBC: ATCC700603, read-out: MBC
In short: as §1

SMILES | MIC [1] [µg/mL] | MIC [2] [µg/mL] | MIC [3] [µg/mL] | MIC [4] [µg/mL] | MIC [5] [µg/mL] | MIC [6] [µg/mL] | MIC [7] [µg/mL] | MIC [8] [µg/mL] | MIC [9] [µg/mL] | MIC [10] [µg/mL] | MIC [11] [µg/mL] | MIC [12] [µg/mL] | MBC [3] [µg/mL] | MBC [4] [µg/mL] | MBC [5] [µg/mL] | MBC [6] [µg/mL] | MBC [7] [µg/mL] | MBC [8] [µg/mL] | MBC [9] [µg/mL] | MBC [10] [µg/mL] | also measured
[H]/N=C(\N)NN=C1CCCc2cc(OCc3ccccc3F)ccc21 [Compound 1A, (E)-2-(6-((2-fluorobenzyl)oxy)-3,4-dihydronaphthalen-1(2H)-ylidene)hydrazine-1-carboximidamide] | 8 (≈ 24.5 µM) | 32 (≈ 98 µM) | 2 (≈ 6.13 µM) | 2 (≈ 6.13 µM) | 2 (≈ 6.13 µM) | 2 (≈ 6.13 µM) | 2 (≈ 6.13 µM) | 2 (≈ 6.13 µM) | 4 (≈ 12.3 µM) | 4 (≈ 12.3 µM) | 8 (≈ 24.5 µM) | 16 (≈ 49 µM) | 8 (≈ 24.5 µM) | 4 (≈ 12.3 µM) | 16 (≈ 49 µM) | 4 (≈ 12.3 µM) | 8 (≈ 24.5 µM) | 8 (≈ 24.5 µM) | 16 (≈ 49 µM) | 16 (≈ 49 µM) | MBC [1]: 16 µg/mL (≈ 49 µM); MBC [2]: > 32 µg/mL; MBC [11]: 8 µg/mL (≈ 24.5 µM); MBC [12]: 16 µg/mL (≈ 49 µM)
[H]/N=C(\N)NN=C1CCCc2cc(OCc3cc(F)ccc3F)ccc21 [Compound 1E, (E)-2-(6-((2,5-difluorobenzyl)oxy)-3,4-dihydronaphthalen-1(2H)-ylidene)hydrazine-1-carboximidamide] | 8 (≈ 23.2 µM) | > 32 | 2 (≈ 5.81 µM) | 2 (≈ 5.81 µM) | 2 (≈ 5.81 µM) | 2 (≈ 5.81 µM) | 2 (≈ 5.81 µM) | 2 (≈ 5.81 µM) | 4 (≈ 11.6 µM) | 2 (≈ 5.81 µM) | 8 (≈ 23.2 µM) | 32 (≈ 92.9 µM) | 8 (≈ 23.2 µM) | 2 (≈ 5.81 µM) | 32 (≈ 92.9 µM) | 4 (≈ 11.6 µM) | 8 (≈ 23.2 µM) | 8 (≈ 23.2 µM) | 16 (≈ 46.5 µM) | 16 (≈ 46.5 µM) | MBC [1]: 8 µg/mL (≈ 23.2 µM); MBC [11]: 8 µg/mL (≈ 23.2 µM); MBC [12]: 32 µg/mL (≈ 92.9 µM)

Continued, in another order:

MIC [1] [µg/mL] | MIC [2] [µg/mL] | MIC [3] [µg/mL] | MIC [4] [µg/mL] | MIC [5] [µg/mL] | MIC [6] [µg/mL] | MIC [7] [µg/mL] | MIC [8] [µg/mL] | MIC [9] [µg/mL] | MIC [10] [µg/mL] | MIC [11] [µg/mL] | MIC [12] [µg/mL] | SMILES | MBC [3] [µg/mL] | MBC [4] [µg/mL] | MBC [5] [µg/mL] | MBC [6] [µg/mL] | MBC [7] [µg/mL] | MBC [8] [µg/mL] | MBC [9] [µg/mL] | MBC [10] [µg/mL] | also measured
> 32 | > 32 | 4 (≈ 11.2 µM) | 2 (≈ 5.58 µM) | 4 (≈ 11.2 µM) | 4 (≈ 11.2 µM) | 4 (≈ 11.2 µM) | 2 (≈ 5.58 µM) | 2 (≈ 5.58 µM) | 2 (≈ 5.58 µM) | > 32 | > 32 | [H]/N=C(\N)NN=C1CCCc2cc(OCCCCCCCCCC)ccc21 [Compound 2G, (E)-2-(6-(decyloxy)-3,4-dihydronaphthalen-1(2H)-ylidene)hydrazine-1-carboximidamide] | 4 (≈ 11.2 µM) | 4 (≈ 11.2 µM) | 16 (≈ 44.6 µM) | 16 (≈ 44.6 µM) | 8 (≈ 22.3 µM) | 2 (≈ 5.58 µM) | 8 (≈ 22.3 µM) | 8 (≈ 22.3 µM) | 
> 32 | > 32 | 1 (≈ 2.9 µM) | 1 (≈ 2.9 µM) | 2 (≈ 5.81 µM) | 2 (≈ 5.81 µM) | 2 (≈ 5.81 µM) | 2 (≈ 5.81 µM) | 2 (≈ 5.81 µM) | 2 (≈ 5.81 µM) | > 32 | > 32 | [H]/N=C(\N)NN=C1CCCc2cc(OCCCCCCCCC)ccc21 [Compound 2F, (E)-2-(6-(nonyloxy)-3,4-dihydronaphthalen-1(2H)-ylidene)hydrazine-1-carboximidamide] | 2 (≈ 5.81 µM) | 2 (≈ 5.81 µM) | 2 (≈ 5.81 µM) | 4 (≈ 11.6 µM) | 4 (≈ 11.6 µM) | 8 (≈ 23.2 µM) | 4 (≈ 11.6 µM) | 8 (≈ 23.2 µM) | 
8 (≈ 27.7 µM) | 16 (≈ 55.5 µM) | 4 (≈ 13.9 µM) | 2 (≈ 6.93 µM) | 32 (≈ 111 µM) | 8 (≈ 27.7 µM) | 8 (≈ 27.7 µM) | 4 (≈ 13.9 µM) | 4 (≈ 13.9 µM) | 1 (≈ 3.47 µM) | 4 (≈ 13.9 µM) | 8 (≈ 27.7 µM) | [H]/N=C(\N)NN=C1CCCc2cc(OCCCCC)ccc21 [Compound 2B, (E)-2-(6-(pentyloxy)-3,4-dihydronaphthalen-1(2H)-ylidene)hydrazine-1-carboximidamide] | 4 (≈ 13.9 µM) | 2 (≈ 6.93 µM) | 32 (≈ 111 µM) | 16 (≈ 55.5 µM) | 16 (≈ 55.5 µM) | 8 (≈ 27.7 µM) | 16 (≈ 55.5 µM) | 8 (≈ 27.7 µM) | MBC [1]: 8 µg/mL (≈ 27.7 µM); MBC [2]: 32 µg/mL (≈ 111 µM); MBC [11]: 8 µg/mL (≈ 27.7 µM); MBC [12]: 8 µg/mL (≈ 27.7 µM)
